This is an account of results in patent US11566007B2, “Ras inhibitors” (Revolution Medicines, Inc., priority 2019, dated 2023).

One assay deals with KRAS WT (Homo sapiens (Human), UniProt P01116+P62937). The assay is described as follows: Ras-Raf (BRAF RBD) disruption / FRET / MOA assay, KRAS WT. It counts as biochemical. The settings on record: read-out: IC50* KRAS WT FRET data. The method, boiled down: (§1)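 Ras:RAF disruption was scored as a fall in TR-FRET ratio relative to DMSO. Compound ranged in 3-fold steps over 10 points from 30 μM final; incubation ran 3 h at 25° C, detection antibodies a further 1.5 h. Reported as IC50.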

The target of the next assay is KRAS G12D (Homo sapiens (Human), UniProt P01116+P62937, G12D). Put plainly: Ras-Raf (BRAF RBD) disruption / FRET / MOA assay, KRAS G12D. The class given is biochemical. To be noted: Ras-Raf disruption/FRET/MOA assay; class symbols; read-out: KRAS G12D FRET data IC50. The method, boiled down: as §1
A further assay has as its target NRAS Q61R (Homo sapiens (Human), UniProt P01111+P62937, Q61R). Put plainly: Ras-Raf (BRAF RBD) disruption / FRET / MOA assay, NRAS Q61R. The class given is biochemical. The settings on record: NRAS Q61R; Ras-Raf disruption/FRET/MOA assay; read-out: IC50* NRAS Q61R FRET data. In a few lines:
(§2)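 TR-FRET disruption of nucleotide-loaded Ras binding to BRAF RBD via compound-driven ternary complex with cyclophilin A. Compound as 10-point 3-fold series from 30 μM final, 3 h at 25° C, then anti-His Eu-W1024 (10 nM) and anti-GST allophycocyanin (50 nM) for 1.5 h. IC50 from decreased FRET ratio versus DMSO.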

In the next assay the target is KRAS G12V (Homo sapiens (Human), UniProt P01116+P62937, G12V). The assay is described as follows: Ras-Raf (BRAF RBD) disruption / FRET / MOA assay, KRAS G12V. To be noted: read-out: IC50* KRAS G12V FRET data. The class given is biochemical. The method, boiled down:
as §1

The subject of a further assay is NCI-H358 (K-Ras G12C). Put plainly: CellTiter-Glo cell viability assay, NCI-H358. It counts as cell-based, human. The settings on record: Homo sapiens, NCI-H358, 120 h, NCI-H358, 5-day treatment; class symbols; read-out: Additional H358 Cell Viability assay data (K-Ras G12C, IC50). In a few lines: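 Luminescent viability readout on day 5 after direct compound addition to plated cells; plates sat ~30 min at room temperature before reading. Values expressed as percent of mean DMSO signal, curves fit with a four-parameter logistic model.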
(In general: In ATP-based viability assays light output follows the ATP content of the culture.)

Another assay deals with NRAS WT (Homo sapiens (Human), UniProt P01111+P62937). The assay is described as follows: Ras-Raf (BRAF RBD) disruption / FRET / MOA assay, NRAS WT. To be noted: read-out: IC50* NRAS WT FRET data. It counts as biochemical. The method, boiled down: as §2
The target of another assay is K-Ras G12C (Homo sapiens (Human), UniProt P01116+P62937, G12C). Put plainly: Ras-Raf (BRAF RBD) disruption / FRET / MOA assay, KRAS G12C. To be noted: KRAS G12C; Ras-Raf disruption/FRET/MOA assay; read-out: IC50* KRAS G12C FRET data. The class given is biochemical. In a few lines:
as §1

The target in a further assay is KRAS Q61H (Homo sapiens (Human), UniProt P01116+P62937, Q61H). The assay is described as follows: Ras-Raf (BRAF RBD) disruption / FRET / MOA assay, KRAS Q61H. It counts as biochemical. To be noted: Ras-Raf disruption/FRET/MOA assay; class symbols; read-out: KRAS Q61H FRET data IC50. The method, boiled down:
as §2

In the next assay the target is KRAS G13D (Homo sapiens (Human), UniProt P01116+P62937, G13D). The assay is described as follows: Ras-Raf (BRAF RBD) disruption / FRET / MOA assay, KRAS G13D. The settings on record: read-out: IC50* KRAS G13D FRET data. It counts as biochemical. The method, boiled down:
as §1

The next assay concerns the target K-Ras G13C (Homo sapiens (Human), UniProt P01116+P62937, G13C). Put plainly: Ras-Raf (BRAF RBD) disruption / FRET / MOA assay, KRAS G13C. To be noted: KRAS G13C; Ras-Raf disruption/FRET/MOA assay; read-out: IC50* KRAS G13C FRET data. The class given is biochemical. The method, boiled down: as §1

Bounds are passed on as bounds.

Sequence of KRAS Q61H (P01116-2 other isoform, or with tags, fused parts or gaps Q61H): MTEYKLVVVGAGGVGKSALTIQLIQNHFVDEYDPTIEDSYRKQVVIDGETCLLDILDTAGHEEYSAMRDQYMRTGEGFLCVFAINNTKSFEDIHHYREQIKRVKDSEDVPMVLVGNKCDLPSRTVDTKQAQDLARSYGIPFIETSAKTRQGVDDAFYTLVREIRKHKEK
Sequence of KRAS Q61H (P62937 whole entry): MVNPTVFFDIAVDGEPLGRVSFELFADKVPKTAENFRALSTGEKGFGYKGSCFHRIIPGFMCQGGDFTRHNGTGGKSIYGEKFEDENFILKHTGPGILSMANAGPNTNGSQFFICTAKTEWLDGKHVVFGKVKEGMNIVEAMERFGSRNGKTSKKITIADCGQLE
Sequence of KRAS G13D (P01116-2 other isoform, or with tags, fused parts or gaps G13D): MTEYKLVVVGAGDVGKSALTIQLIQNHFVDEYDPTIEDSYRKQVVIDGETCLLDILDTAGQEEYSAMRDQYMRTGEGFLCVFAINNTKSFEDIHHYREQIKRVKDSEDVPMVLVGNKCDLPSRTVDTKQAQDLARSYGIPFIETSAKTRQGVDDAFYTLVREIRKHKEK
Sequence of KRAS G13D (P62937 whole entry): as the sequence (P62937 whole entry) above
Sequence of KRAS G12V (P01116-2 other isoform, or with tags, fused parts or gaps G12V): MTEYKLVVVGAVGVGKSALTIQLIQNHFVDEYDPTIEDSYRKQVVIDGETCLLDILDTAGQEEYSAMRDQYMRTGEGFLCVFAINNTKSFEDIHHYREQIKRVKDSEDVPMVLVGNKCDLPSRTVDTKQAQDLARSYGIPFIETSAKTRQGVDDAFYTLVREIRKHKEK
Sequence of KRAS G12V (P62937 whole entry): as the sequence (P62937 whole entry) above
Sequence of KRAS G12D (P01116-2 other isoform, or with tags, fused parts or gaps G12D): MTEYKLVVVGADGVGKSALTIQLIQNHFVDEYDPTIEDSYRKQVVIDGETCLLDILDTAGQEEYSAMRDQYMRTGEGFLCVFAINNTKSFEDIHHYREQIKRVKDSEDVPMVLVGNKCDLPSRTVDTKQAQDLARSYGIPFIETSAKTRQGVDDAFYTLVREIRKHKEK
Sequence of KRAS G12D (P62937 whole entry): as the sequence (P62937 whole entry) above
Sequence of K-Ras G13C (P01116-2 other isoform, or with tags, fused parts or gaps G13C): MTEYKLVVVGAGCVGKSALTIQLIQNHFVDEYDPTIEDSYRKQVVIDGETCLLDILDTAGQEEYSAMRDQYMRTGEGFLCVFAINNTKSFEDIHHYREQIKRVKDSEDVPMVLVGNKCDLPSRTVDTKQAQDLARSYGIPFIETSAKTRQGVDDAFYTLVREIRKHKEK
Sequence of K-Ras G13C (P62937 whole entry): as the sequence (P62937 whole entry) above
Sequence of NRAS Q61R (P01111 whole entry Q61R): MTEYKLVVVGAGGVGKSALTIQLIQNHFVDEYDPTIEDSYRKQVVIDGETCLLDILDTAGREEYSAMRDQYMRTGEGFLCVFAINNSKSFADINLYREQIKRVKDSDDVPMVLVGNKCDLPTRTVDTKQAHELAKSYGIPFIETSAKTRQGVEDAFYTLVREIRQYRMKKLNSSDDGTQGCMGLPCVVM
Sequence of NRAS Q61R (P62937 whole entry): as the sequence (P62937 whole entry) above
Sequence of K-Ras G12C (P01116-2 other isoform, or with tags, fused parts or gaps G12C): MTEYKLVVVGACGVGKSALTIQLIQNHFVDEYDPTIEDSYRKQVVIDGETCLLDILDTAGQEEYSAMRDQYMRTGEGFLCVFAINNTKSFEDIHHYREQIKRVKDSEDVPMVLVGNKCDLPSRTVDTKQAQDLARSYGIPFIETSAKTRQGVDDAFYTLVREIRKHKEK
Sequence of K-Ras G12C (P62937 whole entry): as the sequence (P62937 whole entry) above
Sequence of KRAS WT (P01116-2 other isoform, or with tags, fused parts or gaps): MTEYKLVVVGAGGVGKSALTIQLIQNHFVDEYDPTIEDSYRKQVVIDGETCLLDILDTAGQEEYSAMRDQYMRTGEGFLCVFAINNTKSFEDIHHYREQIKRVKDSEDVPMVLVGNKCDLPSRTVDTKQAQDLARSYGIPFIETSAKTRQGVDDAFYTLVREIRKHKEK
Sequence of KRAS WT (P62937 whole entry): as the sequence (P62937 whole entry) above
Sequence of NRAS WT (P01111 whole entry): as the sequence (P01111 whole entry Q61R) above, with R61Q counted along it
Sequence of NRAS WT (P62937 whole entry): as the sequence (P62937 whole entry) above

What is called IC50 is the concentration that inhibits the measured activity by half. As to `C=CC(=O)N1CC[C@H](C(=O)N(C)[C@@H](CC(F)(F)F)C(=O)N[C@H]2Cc3cccc(c3)-c3ccc4c(c3)c(c(-c3cccnc3[C@H](C)OC)n4CC)CC(C)(C)COC(=O)[C@@H]3CCCN(N3)C2=O)C1` (atropisomer, axis not shown) [Example A639], the IC50 at KRAS WT is 1 to 10 µM; on KRAS G12D, more than 10 µM; at NRAS Q61R, 1 to 10 µM; on KRAS G12V it was 1 to 10 µM; in the assay with NCI-H358 (K-Ras G12C), 0.1 to 1 µM; on NRAS WT it was 1 to 10 µM. In addition, the half-maximal inhibitory concentration (IC50) on K-Ras G12C was 0.1 to 1 µM; at KRAS Q61H it was 1 to 10 µM; at KRAS G13D, more than 10 µM; on K-Ras G13C it was 1 to 10 µM.

`CCn1c(-c2cccnc2[C@H](C)OC)c2c3cc(ccc31)N1CCO[C@@H](C[C@H](NC(=O)[C@@H](COC3CCN(C(=O)C#CC(C)(C)N(C)C)CC3)C(C)C)C(=O)N3CCC[C@H](N3)C(=O)OCC(C)(C)C2)C1` (atropisomer, axis not shown) [Example A643, (2R)-2-(((1-(4-(dimethylamino)-4-methylpent-2-ynoyl)piperidin-4-yl)oxy)methyl)-N-((2^2S,6^3S,4S)-1^1-ethyl-1^2-(2-((S)-1-methoxyethyl)pyridin-3-yl)-10,10-dimethyl-5,7-dioxo-6^1,6^2,6^3,6^4,6^5,6^6-hexahydro-1^1H-8-oxa-2(4,2)-morpholina-1(5,3)-indola-6(1,3)-pyridazinacycloundecaphane-4-yl)-3-methylbutanamide]: the IC50 at KRAS WT is more than 10 µM; at KRAS G12D, more than 10 µM; on NRAS Q61R, more than 10 µM; at KRAS G12V it was more than 10 µM; with NCI-H358 (K-Ras G12C), less than 0.01 µM; on NRAS WT, more than 10 µM. Also, the IC50 is 0.01 to 0.1 µM on K-Ras G12C, more than 10 µM at KRAS Q61H, more than 10 µM at KRAS G13D and 1 to 10 µM at K-Ras G13C.

As for `CCn1c(-c2cccnc2[C@H](C)OC)c2c3cc(ccc31)-c1cccc(c1)C[C@H](NC(=O)[C@@H](COC1CN(C(=O)C#C[C@H]3COCCN3C)C1)C(C)C)C(=O)N1CCC[C@H](N1)C(=O)OCC(C)(C)C2` (atropisomer, axis not shown) [Example A644], the IC50 at KRAS WT is more than 10 µM; on KRAS G12D, more than 10 µM; at NRAS Q61R, more than 10 µM; at KRAS G12V, more than 10 µM; in the assay on NCI-H358 (K-Ras G12C) it was less than 0.01 µM; on NRAS WT, more than 10 µM. Further, the IC50 is 0.01 to 0.1 µM at K-Ras G12C, more than 10 µM on KRAS Q61H, more than 10 µM on KRAS G13D and 1 to 10 µM at K-Ras G13C.

As for `CCn1c(-c2cccnc2[C@H](C)OC)c2c3cc(ccc31)-c1cccc(c1)C[C@H](NC(=O)[C@@H](COC1CN(C(=O)C#C[C@@H]3OCCCN3C)C1)C(C)C)C(=O)N1CCC[C@H](N1)C(=O)OCC(C)(C)C2` (atropisomer, axis not shown) [Example A648], the IC50 is 1 to 10 µM on KRAS WT; more than 10 µM on KRAS G12D; more than 10 µM on NRAS Q61R; more than 10 µM at KRAS G12V; 0.01 to 0.1 µM in the assay with NCI-H358 (K-Ras G12C); 1 to 10 µM on NRAS WT. In addition, the IC50 was 0.1 to 1 µM on K-Ras G12C, more than 10 µM on KRAS Q61H, more than 10 µM at KRAS G13D and 1 to 10 µM on K-Ras G13C.

As for `CCn1c(-c2cccnc2[C@H](C)OC)c2c3cc(ccc31)-c1cnc(o1)C[C@H](NC(=O)[C@@H](COC1CN(C(=O)C#CC(C)(C)N(C)C)C1)C(C)C)C(=O)N1CCC[C@H](N1)C(=O)OCC(C)(C)C2` (atropisomer, axis not shown) [Example A649], the IC50 on KRAS WT is more than 10 µM; at KRAS G12D it was more than 10 µM; on NRAS Q61R, more than 10 µM; on KRAS G12V, more than 10 µM; in the assay with NCI-H358 (K-Ras G12C), 0.01 to 0.1 µM; on NRAS WT, more than 10 µM. Moreover, the IC50 at K-Ras G12C was 0.01 to 0.1 µM; on KRAS Q61H, more than 10 µM; at KRAS G13D, more than 10 µM; at K-Ras G13C, more than 10 µM.
